Results reported in patent US6534502B2, “Substituted oximes and hydrazones as neurokinin antagonists” (Schering Corporation, priority 1998, dated 2003).

Legend:
NK2 receptor = target: T1, NK2 receptor (Homo sapiens, UniProt P21452); experiment: neurokinin receptor binding assay, NK2
T1 sequence (P21452 1-398): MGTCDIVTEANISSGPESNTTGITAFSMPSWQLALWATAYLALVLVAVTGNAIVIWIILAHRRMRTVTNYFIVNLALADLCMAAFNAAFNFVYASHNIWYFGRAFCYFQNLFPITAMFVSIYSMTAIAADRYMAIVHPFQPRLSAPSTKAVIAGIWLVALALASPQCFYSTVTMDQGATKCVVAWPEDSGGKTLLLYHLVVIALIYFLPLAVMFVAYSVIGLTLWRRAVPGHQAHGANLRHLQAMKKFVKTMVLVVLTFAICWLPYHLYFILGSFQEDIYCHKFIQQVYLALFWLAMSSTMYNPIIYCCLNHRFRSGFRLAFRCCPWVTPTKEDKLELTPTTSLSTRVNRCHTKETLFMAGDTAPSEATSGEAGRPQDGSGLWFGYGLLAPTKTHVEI
Excerpt: (§1) The in vitro and in vivo activity of the compounds of formula I can be determined by various procedures known in the art, such as a test for their ability to inhibit the activity of the NK1 agonist Substance P, an isolated hamster trachea NK2 assay, a test of the effect of NK1 antagonists on Substance P-induced airway microvascular leakage, measurement of NK2 activity in vivo in guinea pigs, measurement of bronchoconstriction due to NKA, and neurokinin receptor binding assay(s).
(§2) % Inhibition of neurokinin agonist activity is the difference between the percent of maximum specific binding (MSB) and 100%. The percent of MSB is defined by the following equation, wherein “dpm” is disintegrations per minute: [formula]

NK1 receptor = NK1 receptor (Homo sapiens, UniProt P25103); experiment: neurokinin receptor binding assay, NK1
Excerpt: as §1, with “assay(s). NK3 activity is determined by following a procedure similar to that described in the literature, e.g., Molecular Pharmacol., 48 (1995), p. 711-716.” for “assay(s).”
as §2

NK3 receptor = target: T2, NK3 receptor (Homo sapiens, UniProt P29371); experiment: neurokinin receptor binding assay, NK3
T2 sequence (P29371 1-465): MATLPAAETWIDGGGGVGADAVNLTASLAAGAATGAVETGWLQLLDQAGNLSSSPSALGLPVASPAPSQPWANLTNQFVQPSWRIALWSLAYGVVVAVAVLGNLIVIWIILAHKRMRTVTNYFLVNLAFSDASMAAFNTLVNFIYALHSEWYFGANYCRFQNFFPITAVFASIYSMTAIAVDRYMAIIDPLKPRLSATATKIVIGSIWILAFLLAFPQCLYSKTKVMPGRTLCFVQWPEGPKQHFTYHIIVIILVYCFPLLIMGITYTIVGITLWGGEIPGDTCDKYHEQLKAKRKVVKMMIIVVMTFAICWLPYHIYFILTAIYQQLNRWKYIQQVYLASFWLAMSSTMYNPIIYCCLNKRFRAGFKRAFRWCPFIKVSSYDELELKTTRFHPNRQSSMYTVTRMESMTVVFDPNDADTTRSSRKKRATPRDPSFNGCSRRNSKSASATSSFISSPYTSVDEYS
Excerpt: as §1, with “assay(s). NK3 activity is determined by following a procedure similar to that described in the literature, e.g., Molecular Pharmacol., 48 (1995), p. 711-716.” for “assay(s).”
as §2

Chain of NK1 receptor (P25103 whole entry, species assumed): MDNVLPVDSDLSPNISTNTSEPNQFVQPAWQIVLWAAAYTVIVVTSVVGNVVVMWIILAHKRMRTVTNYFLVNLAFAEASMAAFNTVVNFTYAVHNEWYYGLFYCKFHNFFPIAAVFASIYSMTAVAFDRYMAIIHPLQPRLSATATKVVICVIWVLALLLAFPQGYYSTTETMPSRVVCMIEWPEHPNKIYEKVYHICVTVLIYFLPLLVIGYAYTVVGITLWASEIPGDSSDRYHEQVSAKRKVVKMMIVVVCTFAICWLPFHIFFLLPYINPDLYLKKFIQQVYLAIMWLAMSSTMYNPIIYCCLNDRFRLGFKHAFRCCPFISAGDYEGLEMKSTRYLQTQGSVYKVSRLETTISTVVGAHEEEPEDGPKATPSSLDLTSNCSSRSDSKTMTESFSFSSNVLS

SMILES	Ki (NK2 receptor) [nM]	Ki (NK1 receptor) [nM]	Ki (NK3 receptor) [nM]
CON=C(CN(C)C(=O)c1cc(Cl)cc(Cl)c1)C(CCN1CCC(N2CCCN(C(C)(C)C(=O)O)C2=O)CC1)c1ccc(Cl)c(Cl)c1 (stereo not shown) [Example 6M]	0.5	0.9	0.3
CO/N=C(\CN(C)C(=O)c1cc(Cl)cc(Cl)c1)[C@H](CCN1CCC(n2c(=O)[nH]c3ccccc32)CC1)c1ccc(Cl)c(Cl)c1 [Example 18A]			9.8
CO/N=C(\CN(C)C(=O)c1cc(Cl)cc(Cl)c1)[C@H](CCN1CCC(N2CCCN(Cc3nn[nH]n3)C2=O)CC1)c1ccc(Cl)c(Cl)c1 [Example 6S]			2.1
CO/N=C(\CN(C)C(=O)c1cc(Cl)cc(Cl)c1)[C@H](CCN1CCC(N2CCCN(Cc3ccc[n+]([O-])c3)C2=O)CC1)c1ccc(Cl)c(Cl)c1 [Example 6Y]	0.4	0.4	0.4
CON=C(CN(C)C(=O)c1cc(Cl)cc(Cl)c1)C(CCN1CCC(N2C(=O)c3ccccc3C2C)CC1)c1ccc(Cl)c(Cl)c1 (stereo not shown) [Example 5B]	2.8	0.9	
CN(C/C(=N\OC/C(N)=N/O)C(CCN1CCC(N2CCCN(C/C(N)=N/O)C2=O)CC1)c1ccc(Cl)c(Cl)c1)C(=O)c1cc(Cl)cc(Cl)c1 (stereo not shown) [Example 16]	0.4	0.4	0.7
CO/N=C(\CN(C)C(=O)c1cc(Cl)cc(Cl)c1)C(CCN1CCC(N2CC(=O)N[C@@H](CC(=O)O)C2=O)CC1)c1ccc(Cl)c(Cl)c1 (stereo partly shown) [Example 10B]	28.9	2.9	34.6
CO/N=C(\CN(C)C(=O)c1cc(Cl)cc(Cl)c1)C(CCN1CCC(N2CCNCC2=O)CC1)c1ccc(Cl)c(Cl)c1 (stereo not shown) [Example 8A]	0.7	1.1	1.2
CO/N=C(\CN(C)C(=O)c1cc(Cl)cc(Cl)c1)[C@H](CCN1CCC(N2CC(=O)N[C@H](CC(N)=O)C2=O)CC1)c1ccc(Cl)c(Cl)c1 [Example 11A]	1	0.8	1.9
CO/N=C(\CN(C)C(=O)c1ccc2c(c1)OCO2)[C@H](CCN1CCC(N2CCCNC2=O)CC1)c1ccc(Cl)c(Cl)c1 [Example 7F]	0.4	1.8	3.8
CO/N=C(\CN(C)C(=O)c1cc(Cl)cc(Cl)c1)[C@H](CCN1CCC(N2CCCN(CC(=O)N3CCOCC3)C2=O)CC1)c1ccc(Cl)c(Cl)c1 [Example 6E]	1	1	1.5
